Measurements published in US6355474B1, “Immunostimulatory and metastasis inhibiting fermented vegetal material” (priority 1997, dated 2002).

How the values were obtained:
[1] = literature; cited from earlier work
malignant tumour cells = settings: literature; cited from earlier work
[2] = Stability (storage) tests via 2.6-DMBQ / 2-MBQ concentration by HPLC; assay type: physicochemical
Protocol: The decomposition of the material according to the invention was checked via the chanqes in concentration of the 2.6-dimethoxy-p-benzoquinone. We conducted storage experiments at three different temperatures (room temperature 20° C. 40° C. and 60° C.) The lyophilisate—about 1 g—as stored in test-tubes which were sealed air-tight. The duration of the experiments was 8 weeks, every week three parallel measurements were conducted on samples taken from all three series kept at different temperatures. The quantitative analysis of benzoquinone derivatives was conducted by HPLC.

| SMILES | fungicidal and bacteriostatic effect [1] | cytotoxicity for malignant tumour cells (malignant tumour cells) | decomposition of 2-methoxy-p-benzoquinone in the stored material ([2]; room temperature) | decomposition of 2-methoxy-p-benzoquinone in the stored material ([2]; samples kept at 40 or 60° C.) |
| --- | --- | --- | --- | --- |
| COC1=CC(=O)C=C(OC)C1=O [2.6-DMBQ, 2.6-dimethoxy-p-benzoquinone] | fungicidal and bacteriostatic effect | cytotoxic | – | – |
| COC1=CC(=O)C=CC1=O [2-MBQ, 2-methoxy-p-benzoquinone] | fungicidal and bacteriostatic effect | – | remained unchanged | could not be shown after one week of storage |
